Laboratory results as given in ChEMBL document CHEMBL1201862, “PubChem BioAssay data set” (2004).
Activity calls are given as the source filed them. Cut-off read from the data, not from the text of the source, for most assays here: actives have a measured IC50 and inactives only a lower limit.

Columns and labels:
[1] = Luminescence Cell-Based Dose Confirmation HTS to Identify Activators of 5'UTR Stem-Loop Driven Alpha-Synuclein mRNA Translation in H4 Neuroglioblastoma Cells. [Related pubchem assays: 1829 (Project Summary), 1814 (Primary HTS)]; format: functional
[2] = Luminescence Cell Based Dose Confirmation HTS to Identify Activators of 5'UTR Stem-Loop Driven Alpha-Synuclein mRNA Translation in H4 Neuroglioblastoma Cells. [Related pubchem assays (depositor defined):AID1813, AID1829]; format: functional; conditions: Homo sapiens
[3] = target: T1, Sentrin-specific protease 8 (Homo sapiens, UniProt Q96LD8); assay: inhibition of human SENP8 cleavage activity – biochemical, luminescence, SAR follow-up (AID 504501); format: functional
T1 sequence (Q96LD8 whole entry): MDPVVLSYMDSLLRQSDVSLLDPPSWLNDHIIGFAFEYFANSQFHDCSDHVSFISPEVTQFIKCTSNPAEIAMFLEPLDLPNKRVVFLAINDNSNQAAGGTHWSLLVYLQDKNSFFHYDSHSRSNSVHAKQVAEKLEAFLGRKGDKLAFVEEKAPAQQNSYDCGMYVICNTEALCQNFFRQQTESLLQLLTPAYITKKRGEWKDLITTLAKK

Caspase-3 = target: T2, Caspase-3 (Homo sapiens, UniProt P42574); assay: SAR Analysis of small molecule inhibitors of Sentrin-specific proteases (SENPs) using a Caspase-3 Selectivity assay. [Related pubchem assays (depositor defined):AID2540, AID2599, AID434973, AID489001]; format: functional
T2 sequence (P42574 whole entry): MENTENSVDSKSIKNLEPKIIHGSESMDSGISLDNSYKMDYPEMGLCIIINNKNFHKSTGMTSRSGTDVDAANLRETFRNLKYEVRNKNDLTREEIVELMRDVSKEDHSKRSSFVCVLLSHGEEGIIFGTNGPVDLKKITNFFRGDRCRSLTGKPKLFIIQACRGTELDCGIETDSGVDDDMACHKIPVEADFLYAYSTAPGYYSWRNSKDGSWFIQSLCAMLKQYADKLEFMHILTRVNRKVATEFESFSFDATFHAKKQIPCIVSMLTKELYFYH

[4] = target: T3, Mannose-6-phosphate isomerase (Homo sapiens, UniProt P34949); assay: MPI enzyme activity inhibition – biochemical, fluorescence intensity, coupled assay, primary screen (AID 1209)
T3 sequence (P34949 whole entry): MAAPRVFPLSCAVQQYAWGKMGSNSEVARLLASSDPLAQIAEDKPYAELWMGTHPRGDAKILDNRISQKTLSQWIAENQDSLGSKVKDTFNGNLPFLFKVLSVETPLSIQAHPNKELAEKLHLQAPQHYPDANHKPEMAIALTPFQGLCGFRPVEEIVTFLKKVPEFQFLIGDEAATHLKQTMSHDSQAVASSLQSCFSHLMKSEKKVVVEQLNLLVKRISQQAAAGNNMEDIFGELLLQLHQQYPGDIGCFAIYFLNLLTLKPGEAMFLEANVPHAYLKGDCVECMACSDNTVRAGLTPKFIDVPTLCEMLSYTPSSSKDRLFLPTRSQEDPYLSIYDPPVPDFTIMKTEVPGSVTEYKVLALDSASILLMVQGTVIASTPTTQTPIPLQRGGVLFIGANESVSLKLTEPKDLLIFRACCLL

Structure (SMILES): c1ccc2c(Nc3nnc(-c4ccncc4)s3)cccc2c1
- EC50 [1]: 0.196 µM (active)
- EC50 [2]: 2.02 µM (active)

Structure (SMILES): COc1cc(C(=O)c2nccc3cc(OC)c(OC)cc23)c([N+](=O)[O-])cc1OC
- IC50 [3]: > 99 µM (inactive)
- IC50 (Caspase-3): > 99 µM (inactive)

Structure (SMILES): N=C1S/C(=C\c2ccc(-c3ccccc3C(=O)O)o2)C(=O)N1c1ccc2c(c1)OCO2
- IC50 [4]: 11.1 µM (active)
